Reference: US20250109168A1, “POLYPEPTIDE AND USE THEREOF IN REGULATING BLOOD GLUCOSE LEVEL AND/OR REDUCING FAT” (Greenyn Biotechnology Co., Ltd, priority 2023, published 2025)

B1: Polypeptide 3 (peptide)
peptide: MQIFVKTLTG
B2: Polypeptide 2 (peptide)
peptide: INPNEQREV
B3: Polypeptide 4 (peptide)
peptide: MQIFVK
B4: Polypeptide 1 (peptide)
peptide: GGGDATRYSTGGGYS

Experiments:
p-IR/IR = assay: Cell test: western blotting of p-IR/IR in C2C12 mouse myoblasts; format: cell-based; conditions: for Insulin receptor phosphorylation (p-IR/IR), result in words: C2C12 cells, without induction by insulin, summary of Table 6; for p-IR/IR (change in expression): C2C12 mouse myoblasts, final concentration 20 μL/mL, 24 hours, western blotting
Protocol: (§1) C2C12 mouse myoblasts were obtained and were cultured in groups for 24 hours. After that, the culture medium of each group was added with human insulin (MedChemExpress LLC), polypeptide 1 of the present invention (SEQ ID No.: 1), polypeptide 2 of the invention (SEQ ID No.: 2), polypeptide 3 of the invention (SEQ ID No.: 3), polypeptide 4 of the invention (SEQ ID No.: 4), or polypeptide 5 (whose amino acid sequence number is SEQ ID No.: 5 and which was used for the control group) such that the final concentration of the added insulin/polypeptide in the culture medium was 20 μL/mL. The cells in each group were then cultured for another 24 hours, before the culture medium of each cell group was removed. The cells were subsequently washed with a phosphate-buffered solution, added with a radioimmunoprecipitation assay (RIPA) buffer containing a phosphatase inhibitor, and kept in a refrigerator, allowing reactions to take place for 30 minutes. Following that, the cells were thawed, subjected to vibration extraction with an ultrasonic vibrator for 5 minutes, and centrifuged. The supernatant of each cell group was collected and was analyzed by the western blotting method in order to determine changes in the expression of p-IR/IR, p-Akt, GLUT4, mTOR, PPARα, and p-AMPK in each cell group.

p-AMPK = assay: Cell test: western blotting of p-AMPK in C2C12 mouse myoblasts; format: cell-based; conditions: final concentration 20 μL/mL, 24 hours
Protocol: as §1

PGC-1α = assay: Cell test: western blotting of PGC-1α in C2C12 mouse myoblasts; format: cell-based; conditions: for Expression of PGC-1α, result in words: C2C12 cells, without induction by insulin, summary of Table 6; for PGC-1α (change in expression): C2C12 mouse myoblasts, final concentration 20 μL/mL, 24 hours, western blotting
Protocol: [The source words this procedure for another target and reports this target under the same test.] as §1

GLUT4 = assay: Cell test: western blotting of GLUT4 in C2C12 mouse myoblasts; format: cell-based; conditions: for Expression of GLUT4, result in words: C2C12 cells, without induction by insulin, summary of Table 6; for GLUT4 (change in expression): C2C12 mouse myoblasts, final concentration 20 μL/mL, 24 hours, western blotting
Protocol: as §1

mTOR = assay: Cell test: western blotting of mTOR in C2C12 mouse myoblasts; format: cell-based; conditions: final concentration 20 μL/mL, 24 hours
Protocol: as §1

PPARα = assay: Cell test: western blotting of PPARα in C2C12 mouse myoblasts; format: cell-based; conditions: for Expression of PPARα, result in words: C2C12 cells, without induction by insulin, summary of Table 6; for PPARα (change in expression): C2C12 mouse myoblasts, final concentration 20 μL/mL, 24 hours, western blotting
Protocol: as §1

p-Akt = assay: Cell test: western blotting of p-Akt in C2C12 mouse myoblasts; format: cell-based; conditions: for Expression of phosphorylated Akt, result in words: C2C12 cells, without induction by insulin, summary of Table 6; for p-Akt (change in expression): C2C12 mouse myoblasts, final concentration 20 μL/mL, 24 hours, western blotting
Protocol: as §1

insulin receptor = insulin receptor (mouse, UniProt P15208 28-1372); assay: cell-based or functional assay
insulin receptor, sequence (P15208 28-1372): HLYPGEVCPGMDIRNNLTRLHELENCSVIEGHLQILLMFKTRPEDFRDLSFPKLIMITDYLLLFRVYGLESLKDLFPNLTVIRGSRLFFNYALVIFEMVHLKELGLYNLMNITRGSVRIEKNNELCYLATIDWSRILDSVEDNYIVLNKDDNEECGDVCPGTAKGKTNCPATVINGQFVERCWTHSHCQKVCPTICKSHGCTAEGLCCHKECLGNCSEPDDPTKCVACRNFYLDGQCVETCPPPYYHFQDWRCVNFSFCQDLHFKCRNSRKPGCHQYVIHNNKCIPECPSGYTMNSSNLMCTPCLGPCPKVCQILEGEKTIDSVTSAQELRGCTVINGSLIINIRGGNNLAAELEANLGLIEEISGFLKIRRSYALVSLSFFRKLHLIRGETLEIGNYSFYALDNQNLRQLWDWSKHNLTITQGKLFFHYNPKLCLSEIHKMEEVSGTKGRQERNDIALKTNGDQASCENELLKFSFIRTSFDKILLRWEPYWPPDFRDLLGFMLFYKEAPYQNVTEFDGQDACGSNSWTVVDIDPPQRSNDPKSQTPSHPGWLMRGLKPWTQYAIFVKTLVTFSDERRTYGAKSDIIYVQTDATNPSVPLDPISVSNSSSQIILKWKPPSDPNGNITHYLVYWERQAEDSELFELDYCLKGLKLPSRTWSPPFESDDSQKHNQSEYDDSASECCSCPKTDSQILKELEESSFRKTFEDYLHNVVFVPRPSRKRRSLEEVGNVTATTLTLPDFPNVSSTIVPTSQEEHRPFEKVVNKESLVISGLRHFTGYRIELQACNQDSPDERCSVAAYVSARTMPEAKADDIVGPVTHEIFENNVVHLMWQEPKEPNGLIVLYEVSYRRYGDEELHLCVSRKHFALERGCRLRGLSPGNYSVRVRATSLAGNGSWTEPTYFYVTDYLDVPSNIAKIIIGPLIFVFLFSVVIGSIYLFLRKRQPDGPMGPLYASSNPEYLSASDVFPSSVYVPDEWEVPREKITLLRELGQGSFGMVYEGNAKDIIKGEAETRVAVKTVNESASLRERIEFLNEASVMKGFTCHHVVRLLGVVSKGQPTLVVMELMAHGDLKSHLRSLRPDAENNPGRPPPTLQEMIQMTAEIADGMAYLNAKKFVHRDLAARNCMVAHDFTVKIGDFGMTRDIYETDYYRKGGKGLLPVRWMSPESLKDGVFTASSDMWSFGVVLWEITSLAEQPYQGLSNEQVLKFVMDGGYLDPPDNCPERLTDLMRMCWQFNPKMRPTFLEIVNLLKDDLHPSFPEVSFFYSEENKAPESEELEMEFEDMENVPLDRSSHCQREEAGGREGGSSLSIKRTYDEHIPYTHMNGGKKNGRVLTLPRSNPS

Molecule	Insulin receptor phosphorylation (p-IR/IR), result in words (p-IR/IR)	p-AMPK (change in expression) (p-AMPK)	Expression of PGC-1α, result in words (PGC-1α)	PGC-1α (change in expression) (PGC-1α)	Expression of GLUT4, result in words (GLUT4)	GLUT4 (change in expression) (GLUT4)	mTOR (change in expression) (mTOR)	Expression of PPARα, result in words (PPARα)	PPARα (change in expression) (PPARα)	Expression of phosphorylated Akt, result in words (p-Akt)	p-Akt (change in expression) (p-Akt)	p-IR/IR (change in expression) (p-IR/IR)	p-IR/IR (insulin receptor)
GGGDATRYSTGGGYS [polypeptide 1]	able to encourage insulin receptor phosphorylation	+232%	enhance the expression of PGC-1α	+161%	increase the expression of phosphorylated Akt and GLUT4	+376%	+136%	enhance the expression of PGC-1α and PPARα	+173%	increase the expression of phosphorylated Akt	+196%		
INPNEQREV [polypeptide 2]	able to encourage insulin receptor phosphorylation	+70%	enhance the expression of PGC-1α	+0%	increase the expression of phosphorylated Akt and GLUT4	+23%	+22%	enhance the expression of PGC-1α and PPARα	+62%	increase the expression of phosphorylated Akt	+29%		
MQIFVK [polypeptide 4]	able to encourage insulin receptor phosphorylation	+91%	enhance the expression of PGC-1α	+155%	increase the expression of GLUT4	+156%	+74%	enhance the expression of PGC-1α and PPARα	+151%	failure to increase the expression of phosphorylated Akt significantly	−3%		
MQIFVKTLTG [polypeptide 3]	able to encourage insulin receptor phosphorylation	+210%	enhance the expression of PGC-1α	+258%	increase the expression of phosphorylated Akt and GLUT4	+582%	+117%	enhance the expression of PGC-1α and PPARα	+196%	increase the expression of phosphorylated Akt	+153%		
VATVIQVL [polypeptide 5, reference compound]		+7%	weaker enhancing effect	+3%	weaker enhancing effect	+34%	+0%	weaker enhancing effect	+23%	failed to increase the expression of phosphorylated Akt	−42%	1	
human insulin (MedChemExpress LLC) (from UniProt P01308 25-54; P01308 90-110) (ligand)													1.23
human insulin [reference compound]		+1%		+50%		+41%	−2%		+40%		+56%	1.23	
B1													3.08
B2													1
B3													1.97
B4													1.81
